Results from PubChem BioAssay AID485301 (The Scripps Research Institute Molecular Screening Center, 2010).
The source made the active and inactive calls.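 How the source made its calls: active means IC50 of 10 µM or less against the helicase of at least one HCV strain tested; inactive means the rest.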

Legend:
Experiment in all cases: HCV NS3 helicase unwinding inhibitors, late-stage follow-up, selectivity assay, biochemical, real-time fluorescence, genotypes 1b J4, 1b con1, 2a JFH1 (AID 485301)
Conditions in all cases: Cy5 molecular beacon fluorescence
NS3h 1b (J4) = target: NS3h 1b (J4)
NS3h 1b (con1) = target: NS3h 1b (con1)
NS3h 2a (JFH1) = target: NS3h 2a (JFH1)

SMILES | IC50 (NS3h 1b (J4)) | IC50 (NS3h 1b (con1)) | IC50 (NS3h 2a (JFH1))
COc1ccc(/C=N/NC(=O)c2cc(O)c(O)c(O)c2)cc1COc1ccc(C(=O)OCC(C)C)cc1 | > 500 µM (inactive) | > 500 µM (inactive) | 
COc1cccc(-n2c(SCc3cc(=O)oc4cc(O)c(O)cc34)nc3ccccc3c2=O)c1 | > 500 µM (inactive) | > 500 µM (inactive) | > 500 µM (inactive)
CCOc1cccc(C2C(C(=O)c3ccc(C)o3)=C(O)C(=O)N2Cc2ccccc2)c1 (stereo not drawn) | > 500 µM (inactive) | > 500 µM (inactive) | > 500 µM (inactive)
Cc1ccc(C(=O)C2=C(O)C(=O)N(Cc3ccco3)C2c2cccc(Cl)c2)o1 (stereo not drawn) | > 500 µM (inactive) | > 500 µM (inactive) | > 500 µM (inactive)
COc1cc(C2C(C(=O)c3ccc(C)o3)=C(O)C(=O)N2c2cc(C)on2)ccc1OCc1ccccc1 (stereo not drawn) | > 500 µM (inactive) | > 500 µM (inactive) | > 500 µM (inactive)
CCCCCOc1ccc(C2C(C(=O)c3ccc(C)o3)=C(O)C(=O)N2c2cc(C)on2)cc1 (stereo not drawn) | > 500 µM (inactive) | > 500 µM (inactive) | > 500 µM (inactive)
Cc1cc(N2C(=O)C(O)=C(C(=O)c3ccc(C)o3)C2c2ccc(OCc3ccccc3)cc2)no1 (stereo not drawn) | > 500 µM (inactive) | > 500 µM (inactive) | > 500 µM (inactive)
COc1ccc(C=NNC(=O)c2cc(O)c(O)c(O)c2)cc1COc1ccc(C(=O)OCC(C)C)cc1 | > 500 µM (inactive) | > 500 µM (inactive) | > 500 µM (inactive)
